Values belong to the compound of their own block, whether it stands above or below them.
Legend:
[1] = target: Vascular endothelial growth factor receptor 3 (Homo sapiens, UniProt P35916); experiment: Inhibition of VEGFR3
[2] = target: Vascular endothelial growth factor receptor 1 (Homo sapiens, UniProt P17948); experiment: Inhibition of VEGFR1
[3] = target: Vascular endothelial growth factor receptor 2 (Homo sapiens, UniProt P35968); experiment: Inhibition of VEGFR2
[4] = target: Fibroblast growth factor receptor 2 (Homo sapiens, UniProt P21802); experiment: Inhibition of FGFR2
Sequence of Fibroblast growth factor receptor 2 (P21802 whole entry): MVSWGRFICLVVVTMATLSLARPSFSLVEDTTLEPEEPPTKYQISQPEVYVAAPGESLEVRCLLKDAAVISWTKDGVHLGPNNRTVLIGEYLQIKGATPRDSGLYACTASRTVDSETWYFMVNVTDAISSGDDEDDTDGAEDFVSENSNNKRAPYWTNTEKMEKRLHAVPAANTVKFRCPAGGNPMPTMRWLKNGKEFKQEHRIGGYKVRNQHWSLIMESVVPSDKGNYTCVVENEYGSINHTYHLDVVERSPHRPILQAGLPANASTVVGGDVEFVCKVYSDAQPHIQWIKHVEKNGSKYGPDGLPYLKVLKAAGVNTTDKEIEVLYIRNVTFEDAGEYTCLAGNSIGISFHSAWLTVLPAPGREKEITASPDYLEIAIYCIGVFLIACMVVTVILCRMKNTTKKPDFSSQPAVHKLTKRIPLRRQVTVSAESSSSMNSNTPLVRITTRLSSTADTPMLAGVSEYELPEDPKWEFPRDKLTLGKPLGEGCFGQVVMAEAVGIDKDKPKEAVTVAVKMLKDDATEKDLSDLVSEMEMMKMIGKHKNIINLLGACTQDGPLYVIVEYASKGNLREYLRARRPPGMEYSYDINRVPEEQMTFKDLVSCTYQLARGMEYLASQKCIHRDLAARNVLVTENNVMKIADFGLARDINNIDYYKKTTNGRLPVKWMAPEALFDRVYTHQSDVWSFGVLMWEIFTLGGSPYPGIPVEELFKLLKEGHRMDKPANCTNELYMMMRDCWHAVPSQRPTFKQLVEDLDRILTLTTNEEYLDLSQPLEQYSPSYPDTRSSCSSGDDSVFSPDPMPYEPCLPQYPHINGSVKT

[5] = target: Fibroblast growth factor receptor 1 (Homo sapiens, UniProt P11362); experiment: Inhibition of FGFR1
[6] = Inhibition of FGFRbeta
[7] = tested on: Mus musculus; experiment: Antitumor activity against human tumor xenografted athymic mouse assessed as inhibition of tumor growth; format: functional
[8] = tested on: SW-620; experiment: Antitumor activity against human SW620 cells xenografted mouse assessed as inhibition of tumor growth at 100 mg/kg qd for 18 days; format: functional; settings: SW-620, 432 h, read-out: TGI
[9] = species: Danio rerio; experiment: Antiangiogenic activity in zebrafish embryos assessed as inhibition of intersegmental vessel growth at 2.5 uM; format: functional, Embryo
[10] = tested on: HUVEC; experiment: Antiangiogenic activity in HUVEC assessed as inhibition of tube formation at 10 uM; format: functional; settings: Homo sapiens
[11] = tested on: HepG2; experiment: Antitumor activity against human HepG2 cells xenografted mouse assessed as inhibition of tumor growth at 100 mg/kg qd for 18 days; format: functional; settings: HepG2, 432 h, read-out: TGI
[12] = target: Tyrosine-protein kinase Lck (Homo sapiens, UniProt P06239); experiment: Inhibition of LCK
Sequence of Tyrosine-protein kinase Lck (P06239 whole entry): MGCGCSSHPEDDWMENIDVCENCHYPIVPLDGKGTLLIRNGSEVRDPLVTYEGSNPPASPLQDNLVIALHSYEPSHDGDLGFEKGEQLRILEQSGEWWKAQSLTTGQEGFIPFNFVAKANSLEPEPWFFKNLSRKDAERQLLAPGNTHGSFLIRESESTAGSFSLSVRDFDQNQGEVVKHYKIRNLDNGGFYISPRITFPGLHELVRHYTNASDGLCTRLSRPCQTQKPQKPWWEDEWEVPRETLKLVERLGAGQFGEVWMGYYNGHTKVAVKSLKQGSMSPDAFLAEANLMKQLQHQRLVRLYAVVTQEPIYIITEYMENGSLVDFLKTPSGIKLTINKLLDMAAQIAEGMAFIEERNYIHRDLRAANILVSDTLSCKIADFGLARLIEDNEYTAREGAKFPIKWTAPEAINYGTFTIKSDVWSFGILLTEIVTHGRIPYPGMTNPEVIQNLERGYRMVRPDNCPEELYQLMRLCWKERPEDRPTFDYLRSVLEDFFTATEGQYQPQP

[13] = target: RAF proto-oncogene serine/threonine-protein kinase (Homo sapiens, UniProt P04049); experiment: Inhibition of c-Raf
[14] = target: Mast/stem cell growth factor receptor Kit (Homo sapiens, UniProt P10721); experiment: Inhibition of c-Kit
Sequence of Mast/stem cell growth factor receptor Kit (P10721 whole entry): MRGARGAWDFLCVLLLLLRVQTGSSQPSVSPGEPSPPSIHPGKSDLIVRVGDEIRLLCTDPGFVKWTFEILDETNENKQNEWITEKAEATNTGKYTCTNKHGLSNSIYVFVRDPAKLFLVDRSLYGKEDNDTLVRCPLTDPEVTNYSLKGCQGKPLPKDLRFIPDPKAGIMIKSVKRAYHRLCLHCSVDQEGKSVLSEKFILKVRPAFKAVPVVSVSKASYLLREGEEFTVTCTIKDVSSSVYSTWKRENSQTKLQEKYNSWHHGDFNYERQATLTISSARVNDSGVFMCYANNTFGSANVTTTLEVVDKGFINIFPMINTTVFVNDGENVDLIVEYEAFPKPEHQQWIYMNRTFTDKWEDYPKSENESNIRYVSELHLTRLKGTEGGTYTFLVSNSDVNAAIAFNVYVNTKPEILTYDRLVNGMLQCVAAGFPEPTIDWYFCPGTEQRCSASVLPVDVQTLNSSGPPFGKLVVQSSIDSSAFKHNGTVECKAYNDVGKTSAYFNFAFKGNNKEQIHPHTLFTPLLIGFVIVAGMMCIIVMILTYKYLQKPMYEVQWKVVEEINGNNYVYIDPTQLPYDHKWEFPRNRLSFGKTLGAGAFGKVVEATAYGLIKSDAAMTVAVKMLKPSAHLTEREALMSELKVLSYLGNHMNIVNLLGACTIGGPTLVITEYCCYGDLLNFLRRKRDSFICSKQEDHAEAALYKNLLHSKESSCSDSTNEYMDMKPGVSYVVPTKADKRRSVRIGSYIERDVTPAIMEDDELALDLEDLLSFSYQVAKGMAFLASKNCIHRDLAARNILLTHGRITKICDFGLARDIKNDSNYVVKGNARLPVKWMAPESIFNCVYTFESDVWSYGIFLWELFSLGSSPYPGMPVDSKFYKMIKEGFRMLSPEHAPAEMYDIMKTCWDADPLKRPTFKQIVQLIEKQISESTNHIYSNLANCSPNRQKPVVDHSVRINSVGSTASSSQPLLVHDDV

[15] = target: Platelet-derived growth factor receptor beta (Homo sapiens, UniProt P09619); experiment: Inhibition of PDGFRbeta

Sequence of Vascular endothelial growth factor receptor 3 (P35916 whole entry): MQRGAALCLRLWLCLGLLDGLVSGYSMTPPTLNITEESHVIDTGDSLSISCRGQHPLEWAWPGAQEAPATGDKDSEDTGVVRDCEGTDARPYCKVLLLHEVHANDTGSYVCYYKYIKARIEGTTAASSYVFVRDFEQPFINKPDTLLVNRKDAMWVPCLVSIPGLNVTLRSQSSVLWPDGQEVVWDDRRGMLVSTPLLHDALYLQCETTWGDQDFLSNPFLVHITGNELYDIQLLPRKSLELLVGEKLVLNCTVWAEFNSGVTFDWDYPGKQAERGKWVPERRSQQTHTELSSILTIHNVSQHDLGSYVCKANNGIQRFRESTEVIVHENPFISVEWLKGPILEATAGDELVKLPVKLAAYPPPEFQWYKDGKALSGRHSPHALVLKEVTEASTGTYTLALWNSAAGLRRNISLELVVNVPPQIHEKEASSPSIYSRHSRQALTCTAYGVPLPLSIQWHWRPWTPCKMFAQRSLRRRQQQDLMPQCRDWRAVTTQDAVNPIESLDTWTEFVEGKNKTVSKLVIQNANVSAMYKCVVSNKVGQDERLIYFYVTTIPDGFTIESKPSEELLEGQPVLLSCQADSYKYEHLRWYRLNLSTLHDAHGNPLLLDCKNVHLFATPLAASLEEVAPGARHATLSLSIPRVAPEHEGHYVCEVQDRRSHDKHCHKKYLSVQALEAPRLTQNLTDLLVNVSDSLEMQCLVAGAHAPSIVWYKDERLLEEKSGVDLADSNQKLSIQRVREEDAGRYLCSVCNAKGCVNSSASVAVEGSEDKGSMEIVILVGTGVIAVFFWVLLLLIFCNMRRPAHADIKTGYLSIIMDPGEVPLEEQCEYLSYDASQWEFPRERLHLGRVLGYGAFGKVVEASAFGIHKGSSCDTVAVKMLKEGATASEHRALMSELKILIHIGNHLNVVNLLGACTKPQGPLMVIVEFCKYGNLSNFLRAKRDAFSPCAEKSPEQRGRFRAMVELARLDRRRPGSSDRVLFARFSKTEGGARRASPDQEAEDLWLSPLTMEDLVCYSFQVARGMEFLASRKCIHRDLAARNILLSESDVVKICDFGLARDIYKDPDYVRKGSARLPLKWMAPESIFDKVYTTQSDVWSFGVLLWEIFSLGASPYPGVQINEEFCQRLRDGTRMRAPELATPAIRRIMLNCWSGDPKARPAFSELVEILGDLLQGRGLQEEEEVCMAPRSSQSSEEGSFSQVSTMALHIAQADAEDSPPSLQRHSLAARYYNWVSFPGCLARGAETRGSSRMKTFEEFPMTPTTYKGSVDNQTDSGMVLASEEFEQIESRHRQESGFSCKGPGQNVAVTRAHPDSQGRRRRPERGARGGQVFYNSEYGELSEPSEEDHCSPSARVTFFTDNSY
Sequence of Vascular endothelial growth factor receptor 2 (P35968 whole entry): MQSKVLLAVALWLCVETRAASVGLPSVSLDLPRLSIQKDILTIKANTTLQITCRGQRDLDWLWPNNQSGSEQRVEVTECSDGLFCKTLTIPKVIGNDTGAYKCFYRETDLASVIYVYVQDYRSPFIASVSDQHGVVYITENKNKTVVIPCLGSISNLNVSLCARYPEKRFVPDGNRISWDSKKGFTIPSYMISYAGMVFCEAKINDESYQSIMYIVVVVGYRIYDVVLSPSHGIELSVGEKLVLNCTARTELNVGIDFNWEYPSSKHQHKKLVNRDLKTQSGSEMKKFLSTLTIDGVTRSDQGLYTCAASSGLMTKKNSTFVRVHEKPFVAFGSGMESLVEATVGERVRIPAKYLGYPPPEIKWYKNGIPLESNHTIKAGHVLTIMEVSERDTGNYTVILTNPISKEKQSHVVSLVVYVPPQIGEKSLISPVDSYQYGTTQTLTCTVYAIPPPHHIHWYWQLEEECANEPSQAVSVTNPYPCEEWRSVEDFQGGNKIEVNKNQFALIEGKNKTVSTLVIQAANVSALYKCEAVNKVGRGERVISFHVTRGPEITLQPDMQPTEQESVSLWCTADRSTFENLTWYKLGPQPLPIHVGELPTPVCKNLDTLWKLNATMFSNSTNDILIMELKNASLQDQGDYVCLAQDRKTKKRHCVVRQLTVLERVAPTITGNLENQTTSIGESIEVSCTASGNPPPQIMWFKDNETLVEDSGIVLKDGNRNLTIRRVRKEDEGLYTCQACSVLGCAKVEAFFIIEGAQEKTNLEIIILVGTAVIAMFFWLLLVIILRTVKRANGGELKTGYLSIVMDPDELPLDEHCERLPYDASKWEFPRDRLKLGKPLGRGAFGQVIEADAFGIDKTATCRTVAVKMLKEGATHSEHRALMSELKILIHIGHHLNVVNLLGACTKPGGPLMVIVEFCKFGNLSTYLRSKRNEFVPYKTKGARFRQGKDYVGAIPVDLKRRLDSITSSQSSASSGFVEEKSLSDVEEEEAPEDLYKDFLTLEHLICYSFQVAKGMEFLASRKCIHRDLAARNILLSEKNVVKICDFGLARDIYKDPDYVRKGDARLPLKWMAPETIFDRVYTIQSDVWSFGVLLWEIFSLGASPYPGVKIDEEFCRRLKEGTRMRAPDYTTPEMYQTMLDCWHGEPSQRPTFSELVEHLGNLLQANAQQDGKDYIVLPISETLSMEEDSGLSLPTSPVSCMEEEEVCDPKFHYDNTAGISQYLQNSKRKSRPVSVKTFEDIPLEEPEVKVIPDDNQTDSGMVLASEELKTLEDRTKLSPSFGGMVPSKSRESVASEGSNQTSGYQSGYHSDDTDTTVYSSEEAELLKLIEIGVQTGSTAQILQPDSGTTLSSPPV

SMILES: CCN1CCN(Cc2ccc(-c3cc4c(N[C@H](C)c5ccccc5)ncnc4[nH]3)cc2)CC1 [AEE-788]
- IC50 [2]: 59 nM
- IC50 [3]: 77 nM

SMILES: CNC(=O)c1cccc2cc(Oc3ccnc4cc(OCC5(N)CC5)c(OC)cc34)ccc12
- IC50 [2]: 7 nM
- IC50 [3]: 25 nM
- IC50 [1]: 10 nM
- IC50 [4]: 82.5 nM
- IC50 [5]: 17.5 nM

SMILES: CNC(=O)c1cc(COc2nnc(Nc3ccc(Cl)cc3)c3ccoc23)ccn1 [TELATINIB]
- IC50 [1]: 4 nM

SMILES: COc1cc2ncnc(Sc3nnc(C)s3)c2cc1OC
- inhibition in vivo at 100 mg/kg [8]: 72%
- inhibition (INH) [9]: 80%
- inhibition at 10 µM [10]: 98%
- IC50 [3]: 32 nM
- inhibition in vivo at 100 mg/kg [11]: 63%

SMILES: COc1cc2c(Oc3ccc(Nc4ccc(C(C)(C)C)cc4)cc3)ccnc2cc1OCCNCCO
- IC50 [3]: 69 nM
- IC50 [4]: 69 nM
- IC50 [14]: 69 nM
- IC50 [15]: 69 nM

Further lines, with some results ahead:

- IC50 [1]: 5.2 nM
SMILES: COc1cc2nccc(Oc3ccc(NC(=O)NC4CC4)c(Cl)c3)c2cc1C(N)=O [LENVATINIB]

- IC50 [6]: 9 nM
SMILES: NC(=O)c1c(OCc2c(F)cc(Br)cc2F)nsc1NC(=O)NCCCCN1CCCC1 [OSI-632]
- TGI [7]: 85%

- IC50 [12]: 22 nM
- IC50 [13]: 41 nM
- IC50 [14]: 10 nM
SMILES: O=C(Nc1ccc(OC(F)(F)F)cc1)c1sccc1NCc1ccnc2ccccc12 [OSI-930]

From ChEMBL document CHEMBL2177017, “Vascular endothelial growth factor (VEGF) receptors: drugs and new inhibitors” (J Med Chem, 2012)
